Assay results from US4904590A, “Antibiotic A80915 and process for its production” (Eli Lilly and Company, priority 1988, dated 1990).
Converted amounts (≈) assume the structure as drawn. Where two headings read alike, the source gives them in different places.

Tests used:
[1] = test system: Peptostreptococcus intermedius 1264; experiment: Susceptibility of anaerobic bacterial isolates (MIC), agar-dilution; assay type: cell-based; settings: Peptostreptococcus, 1264, 24 h
[2] = test system: Bacteriodes fragilis 1936B; experiment: as above; assay type: cell-based
[3] = test system: Staphylococcus epidermis 222; assay type: cell-based
Description: (§1) The A80915 antibiotics inhibit the growth of bacteria which are pathogenic to animal life. […] The MIC's in Table III were determined by conventional agar-dilution assays.

[4] = test system: Streptococcus pyogenes C203; assay type: cell-based
Description: as §1

Streptococcus sp. = assay type: cell-based; settings: Veterinary organism Streptococcus sp.; agar-dilution
Description: as §1

Salmonella typhimurium = assay type: cell-based; settings: Salmonella enterica; Veterinary organism Salmonella typhimurium; agar-dilution
Description: as §1

[5] = test system: Bordetella bronchiseptica; assay type: cell-based; settings: Veterinary organism Bordetella bronchiseptica; agar-dilution
Description: as §1

[6] = test system: Staphylococcus epidermis EPI1; assay type: cell-based
Description: as §1

[7] = test system: Staphylococcus aureus V41; assay type: cell-based
Description: as §1

Mycoplasma gallisepticum = assay type: cell-based; settings: Mycoplasmoides gallisepticum; Veterinary organism Mycoplasma gallisepticum; agar-dilution
Description: as §1

Pasteurella multocida = assay type: cell-based; settings: Veterinary organism Pasteurella multocida; agar-dilution
Description: as §1

Escherichia coli = assay type: cell-based; settings: Veterinary organism Escherichia coli; agar-dilution
Description: as §1

Staphylococcus sp. = assay type: cell-based; settings: Veterinary organism Staphylococcus sp.; agar-dilution
Description: as §1

[8] = test system: Streptococcus faecium 2041; assay type: cell-based; settings: Enterococcus faecium
Description: as §1

Gram-negative = assay type: cell-based; settings: agar-dilution
Description: as §1

[9] = test system: Staphylococcus aureus X1.1; assay type: cell-based
Description: as §1

[10] = test system: Streptococcus pneumoniae Park1; assay type: cell-based
Description: as §1

Pasteurella hemolytica = assay type: cell-based; settings: Veterinary organism Pasteurella hemolytica; agar-dilution
Description: as §1

Mycoplasma hyopneumoniae = assay type: cell-based; settings: Mesomycoplasma hyopneumoniae; Veterinary organism Mycoplasma hyopneumoniae; agar-dilution
Description: as §1

[11] = test system: Staphylococcus aureus X400; assay type: cell-based
Description: as §1

[12] = test system: Streptococcus faecium X66; assay type: cell-based; settings: Enterococcus faecium
Description: as §1

[13] = test system: Bacteriodes fragilis 1877; experiment: Susceptibility of anaerobic bacterial isolates (MIC), agar-dilution; assay type: cell-based
[14] = test system: Fusobacterium necrophorum 6054A; experiment: as above; assay type: cell-based
[15] = Acute toxicity in mice, intraperitoneal injection; settings: mouse, in vivo, ip
Description: The acute toxicity of the A80915 antibiotics in mice, when administered by intraperitoneal injection and expressed as LD50, is shown in Table V.

[16] = test system: Bacteriodes vulgatis 1211; experiment: Susceptibility of anaerobic bacterial isolates (MIC), agar-dilution; assay type: cell-based
[17] = test system: Propionibacterium acnes 79; experiment: as above; assay type: cell-based
Bacteriodes fragilis 111 = experiment: as above; assay type: cell-based
[18] = test system: Clostridium difficile 2994; experiment: as above; assay type: cell-based
[19] = test system: Peptostreptococcus anaerobius 1428; experiment: as above; assay type: cell-based
Trichomonas vaginalis = experiment: Anti-protozoan activity (MIC); assay type: cell-based
[20] = test system: Eubacterium aerofaciens 1235; experiment: Susceptibility of anaerobic bacterial isolates (MIC), agar-dilution; assay type: cell-based
Candida albicans = experiment: Anti-fungal activity (MIC); assay type: cell-based
[21] = test system: Fusobacterium symbiosum 1470; experiment: Susceptibility of anaerobic bacterial isolates (MIC), agar-dilution; assay type: cell-based
[22] = test system: Peptococcus asaccharolyticus 1302; experiment: as above; assay type: cell-based; settings: Peptoniphilus asaccharolyticus; Peptococcus asaccharolyticus 1302; agar-dilution, 24-hour incubation; read-out: MIC
Peptococcus prevoti 1281 = experiment: as above; assay type: cell-based; settings: 24 h
[23] = test system: Bacteriodes thetaiotaomicron 1438; experiment: as above; assay type: cell-based
[24] = test system: Bacteriodes melaninogenicus 2736; experiment: as above; assay type: cell-based
[25] = test system: Bacteriodes melaninogenicus 1856/28; experiment: as above; assay type: cell-based; settings: Bacteriodes melaninogenicus 1856/28; agar-dilution, 24-hour incubation; read-out: MIC
[26] = test system: Clostridium perfringens 81; experiment: microbe, parasite or virus in culture; assay type: cell-based; settings: Clostridium perfringens, 81, 24 h
Trichomonas foetus = experiment: Anti-protozoan activity (MIC); assay type: cell-based; settings: Tritrichomonas foetus
[27] = test system: Bacteriodes corrodens 1874; experiment: Susceptibility of anaerobic bacterial isolates (MIC), agar-dilution; assay type: cell-based
[28] = test system: Clostridium septicum 1128; experiment: as above; assay type: cell-based; settings: 24-hour incubation
Description: The A80915 antibiotics also are active against anaerobic bacteria. […] End points were read after 24-hour incubation.

[29] = Staphylococcus epidermis 222, agar-dilution, read-out: MIC
[30] = Streptococcus pyogenes C203, agar-dilution, read-out: MIC
[31] = Staphylococcus epidermis EPI1, agar-dilution, read-out: MIC
[32] = Staphylococcus aureus V41, agar-dilution, read-out: MIC
[33] = Streptococcus faecium 2041, agar-dilution, read-out: MIC
[34] = Staphylococcus aureus X1.1, agar-dilution, read-out: MIC
[35] = Streptococcus pneumoniae Park1, agar-dilution, read-out: MIC
[36] = Staphylococcus aureus X400, agar-dilution, read-out: MIC
[37] = Streptococcus faecium X66, agar-dilution, read-out: MIC

## C=C1CCC(Cl)C(C)(C)C1CC12OC(C)(C)C(Cl)CC1(Cl)C(=O)c1c(cc(O)c(C)c1O)C2=O (stereo not shown) [A80915A]
[1]
  MIC: 4 µg/mL (≈ 7.55 µM)
[2]; Bacteriodes fragilis 1936B, agar-dilution, 24-hour incubation, read-out: MIC
  MIC: > 128 µg/mL
[3]; [29]
  MIC: 2 µg/mL (≈ 3.77 µM)
[4]; [30]
  MIC: 32 µg/mL (≈ 60.4 µM)
Streptococcus sp.
  MIC: 0.2 µg/mL (≈ 0.377 µM)
Salmonella typhimurium
  MIC: > 50 µg/mL
[5]
  MIC: > 50 µg/mL
[6]; [31]
  MIC: 2 µg/mL (≈ 3.77 µM)
[7]; [32]
  MIC: 2 µg/mL (≈ 3.77 µM)
Mycoplasma gallisepticum
  MIC: 0.78 µg/mL (≈ 1.47 µM)
Pasteurella multocida
  MIC: 3.12 µg/mL (≈ 5.89 µM)
Escherichia coli
  MIC: > 50 µg/mL
Staphylococcus sp.
  MIC: 0.1 µg/mL (≈ 0.189 µM)
[8]; [33]
  MIC: 8 µg/mL (≈ 15.1 µM)
Gram-negative
  MIC: > 128 µg/mL
[9]; [34]
  MIC: 2 µg/mL (≈ 3.77 µM)
[10]; [35]
  MIC: 32 µg/mL (≈ 60.4 µM)
Pasteurella hemolytica
  MIC: > 50 µg/mL
Mycoplasma hyopneumoniae
  MIC: 3.12 µg/mL (≈ 5.89 µM)
[11]; [36]
  MIC: 2 µg/mL (≈ 3.77 µM)
[12]; [37]
  MIC: 2 µg/mL (≈ 3.77 µM)
[13]; Bacteriodes fragilis 1877, agar-dilution, 24-hour incubation, read-out: MIC
  MIC: > 128 µg/mL
[14]; Fusobacterium necrophorum 6054A, agar-dilution, 24-hour incubation, read-out: MIC
  MIC: > 128 µg/mL
[15]
  LD50: 212 mg/kg
[16]; Bacteriodes vulgatis 1211, agar-dilution, 24-hour incubation, read-out: MIC
  MIC: > 128 µg/mL
[17]; Cutibacterium acnes, Propionibacterium acnes 79, agar-dilution, 24-hour incubation, read-out: MIC
  MIC: 32 µg/mL (≈ 60.4 µM)
Bacteriodes fragilis 111; Bacteriodes fragilis 111, agar-dilution, 24-hour incubation, read-out: MIC
  MIC: > 128 µg/mL
[18]; Clostridioides difficile, 2994, 24 h
  MIC: 4 µg/mL (≈ 7.55 µM)
[19]; Peptostreptococcus anaerobius 1428, agar-dilution, 24-hour incubation, read-out: MIC
  MIC: > 128 µg/mL
Trichomonas vaginalis
  MIC: 12.5 µg/mL (≈ 23.6 µM)
[20]; Collinsella aerofaciens, 1235, 24 h
  MIC: 4 µg/mL (≈ 7.55 µM)
Candida albicans
  MIC: > 40 µg/mL
[21]; Fusobacterium symbiosum 1470, agar-dilution, 24-hour incubation, read-out: MIC
  MIC: > 128 µg/mL
[22]
  MIC: 16 µg/mL (≈ 30.2 µM)
Peptococcus prevoti 1281
  MIC: 4 µg/mL (≈ 7.55 µM)
[23]; Bacteriodes thetaiotaomicron 1438, agar-dilution, 24-hour incubation, read-out: MIC
  MIC: > 128 µg/mL
[24]; Bacteriodes melaninogenicus 2736, agar-dilution, 24-hour incubation, read-out: MIC
  MIC: > 128 µg/mL
[25]
  MIC: 2 µg/mL (≈ 3.77 µM)
[26]
  MIC: 4 µg/mL (≈ 7.55 µM)
Trichomonas foetus
  MIC: 50 µg/mL (≈ 94.4 µM)
[27]; Bacteriodes corrodens 1874, agar-dilution, 24-hour incubation, read-out: MIC
  MIC: > 128 µg/mL
[28]
  MIC: 4 µg/mL (≈ 7.55 µM)

## Cc1c(O)cc2c(c1O)C(=O)[C@@]1(Cl)C[C@@H](Cl)C(C)(C)O[C@@]1(C[C@H]1C(C)(C)[C@@H](Cl)CC[C@]1(C)O)C2=O [A80915C]
[1]
  MIC: 128 µg/mL (≈ 234 µM)
[2]; 24 h
  MIC: 4 µg/mL (≈ 7.3 µM)
[3]; Staphylococcus, 222
  MIC: > 128 µg/mL
[4]; Streptococcus pyogenes, C203
  MIC: > 128 µg/mL
Streptococcus sp.
  MIC: 3.12 µg/mL (≈ 5.69 µM)
Salmonella typhimurium
  MIC: > 50 µg/mL
[5]
  MIC: > 50 µg/mL
[6]; Staphylococcus, EPI1
  MIC: > 128 µg/mL
[7]; Staphylococcus aureus, V41
  MIC: > 128 µg/mL
Mycoplasma gallisepticum
  MIC: 25 µg/mL (≈ 45.6 µM)
Pasteurella multocida
  MIC: 50 µg/mL (≈ 91.3 µM)
Escherichia coli
  MIC: > 50 µg/mL
Staphylococcus sp.
  MIC: 1.56 µg/mL (≈ 2.85 µM)
[8]; 2041
  MIC: > 128 µg/mL
Gram-negative
  MIC: > 128 µg/mL
[9]; Staphylococcus aureus, X1.1
  MIC: > 128 µg/mL
[10]; Streptococcus pneumoniae, PARK1
  MIC: > 128 µg/mL
Pasteurella hemolytica
  MIC: 50 µg/mL (≈ 91.3 µM)
Mycoplasma hyopneumoniae
  MIC: > 50 µg/mL
[11]; Staphylococcus aureus, X400
  MIC: > 128 µg/mL
[12]; X66
  MIC: > 128 µg/mL
[13]; 24 h
  MIC: 4 µg/mL (≈ 7.3 µM)
[14]; Fusobacterium necrophorum, 6054A, 24 h
  MIC: > 128 µg/mL
[15]
  LD50: > 300 mg/kg
[16]; 24 h
  MIC: > 128 µg/mL
[17]; Cutibacterium acnes, 79, 24 h
  MIC: 4 µg/mL (≈ 7.3 µM)
Bacteriodes fragilis 111; 24 h
  MIC: 128 µg/mL (≈ 234 µM)
[18]; Clostridioides difficile, Clostridium difficile 2994, agar-dilution, 24-hour incubation, read-out: MIC
  MIC: 8 µg/mL (≈ 14.6 µM)
[19]; Peptostreptococcus anaerobius, 1428, 24 h
  MIC: 4 µg/mL (≈ 7.3 µM)
Trichomonas vaginalis
  MIC: > 100 µg/mL
[20]; Collinsella aerofaciens, Eubacterium aerofaciens 1235, agar-dilution, 24-hour incubation, read-out: MIC
  MIC: 8 µg/mL (≈ 14.6 µM)
Candida albicans
  MIC: > 80 µg/mL
[21]; Fusobacterium, 1470, 24 h
  MIC: > 128 µg/mL
[22]
  MIC: 2 µg/mL (≈ 3.65 µM)
Peptococcus prevoti 1281
  MIC: 2 µg/mL (≈ 3.65 µM)
[23]; 24 h
  MIC: > 128 µg/mL
[24]; 24 h
  MIC: > 128 µg/mL
[25]
  MIC: 64 µg/mL (≈ 117 µM)
[26]
  MIC: 8 µg/mL (≈ 14.6 µM)
Trichomonas foetus
  MIC: > 100 µg/mL
[27]; 24 h
  MIC: > 128 µg/mL
[28]
  MIC: 8 µg/mL (≈ 14.6 µM)

## C=C1CCC(Cl)C(C)(C)C1CC12OC(C)(C)C(Cl)C=C1C(=O)c1c(cc(O)c(C)c1O)C2=O (stereo not shown) [Compound 5]
[3]; [29]
  MIC: 4 µg/mL (≈ 8.11 µM)
[4]; [30]
  MIC: 4 µg/mL (≈ 8.11 µM)
[6]; [31]
  MIC: 4 µg/mL (≈ 8.11 µM)
[7]; [32]
  MIC: 4 µg/mL (≈ 8.11 µM)
[8]; [33]
  MIC: 8 µg/mL (≈ 16.2 µM)
Gram-negative
  MIC: > 128 µg/mL
[9]; [34]
  MIC: 4 µg/mL (≈ 8.11 µM)
[10]; [35]
  MIC: 4 µg/mL (≈ 8.11 µM)
[11]; [36]
  MIC: 4 µg/mL (≈ 8.11 µM)
[12]; [37]
  MIC: 8 µg/mL (≈ 16.2 µM)
